Laboratory results reported in article PMC5750238 (2018).

Tested on: S6-M19-SAM sensor (RNA, riboswitch) GGGAGAUAGAGCAUCCGAUAACUUCGGUUAUUGGAUGGAUCAGACUCCUUCGGGAGUUUGAUCGGGCCUGAAGCCUCCACGGGCCCCUCUGUCUCCCACAGCUUGGACGAGCUGAAGGAGGCACGGCUCCCCAUCAAGGACGGGUCCAAUGGUCCGCUUCGGCGGAUCAUUGUUGAGUAGAGUGUGAGGAUGGGCCGGGGGAACUUCGGUUCCCGAAAGGACCGGUCGAAGGGACGGUGCGGAGAGGAGAGACUGGGAUGCCUUGUAACCGGGUCUAAGUUGU
Test: FRET dose-response (Spinach/DFHBI-1T to Mango/YO3-biotin)
Settings: 125 mM KCl, 1 mM MgCl2; assembly buffer; 50 nM RNA, 1 µM DFHBI-1T, 1.7 µM YO3-biotin; SAM 1 µM to 2.5 mM; apparent

## C[S+](CC[C@H](N)C(=O)O)C[C@H]1O[C@@H](n2cnc3c(N)ncnc32)[C@H](O)[C@@H]1O (stereo partly shown)
  EC50: 17 µM
